{"source": "patent US20140275166A1", "about": "“SPINTRAPS AND SPIN LABELS AND THEIR HYDROXYLAMINES FOR PERI- AND POST-MENOPAUSAL SYNDROME” (priority 2013, published 2014)", "key": {"[1]": {"test_system": "perimenopausal symptoms, including hot flashes, sweating, and discomfort", "experiment": "Oral treatment of peri- and post-menopausal symptoms in one patient", "type": "in vivo, human", "experimental": "The reduced form of TEMPOL (TEMPOL-H) or equivalent pharmacologically-active spin label/spintrap is prepared by mixing together 2 grams of TEMPOL or a pharmacologically effective amount of another spin-label or spin trap such as methynitrosopropane, 20 grams of ascorbic acid or other reducing compound in 100 ml of distilled water. The formulation is used as is. The solution is slightly-bitter. The formulation can be administered diluted in a suitable liquid such as juice, tea, or coffee. An equivalent dry form as 10 mg of tempol mixed with 100 mg of ascorbic acid or equivalent reducing substance can be easily prepared in capsule or tablet form.\nOne-half ml of the above solution, comprising 10 mg TEMPOL plus 100 mg ascorbic acid, was administered orally 1-3 times a day to a 50 kg person with perimenopausal symptoms, including hot flashes, sweating, and discomfort.\nParental modes of administration such as intravenous, intramuscular, subcutaneous, intraperitoneal, transrectal and so forth are also possible, as are topical modes of administration such as in lotions, creams, gels, and topically-compatible suspensions and solutions."}, "SHR": {"test_system": "SHR", "conditions": "cited from earlier work"}, "[2]": {"test_system": "arterioles from intact and OVE females", "conditions": "cited from earlier work"}, "acute ischemic stroke": {"test_system": "acute ischemic stroke", "conditions": "animal models versus humans; cited from earlier work"}, "[3]": {"test_system": "fibrocystic disease of breast", "conditions": "in vivo; cited from earlier work"}, "[4]": {"conditions": "10 mg TEMPOL plus 100 mg ascorbic acid orally 1-3 times a day, 50 kg person"}}, "note": "Where two headings read alike, the source gives them in different places.", "data": [{"smiles": "CC1(C)CC(O)CC(C)(C)N1[O]", "note": "[TEMPOL, 4-hydroxy-TEMPO]", "values": [{"measurement": "efficacy on perimenopausal symptoms", "setting": "[1]; Tempol itself, without reducing agent, at the same doses", "value": "effective at the same doses"}, {"measurement": "antihypertensive response", "setting": "SHR; male SHR and female SHR given tempol for the first 15 weeks of life", "value": "had an antihypertensive response"}, {"measurement": "antihypertensive response", "setting": "SHR; postmenopausal female SHR", "value": "no response was observed"}, {"measurement": "BP lowering by sex and age", "setting": "SHR; young female versus young male SHR, and after menopause", "value": "more effective in lowering the BP of young female than young male SHR and became less effective after menopause"}, {"measurement": "flow-induced increases in NO and subsequent vasodilation", "setting": "[2]", "value": "blunted flow-induced increases in NO and subsequent vasodilation"}]}, {"smiles": "CC(C)(C)[N+]([O-])=Cc1ccccc1", "note": "[Phenylbutylnitrone, 1-alpha-phenyl-tert-butyl nitrone]", "values": [{"measurement": "efficacy on perimenopausal symptoms", "setting": "[1]; 100 mg dose per day", "value": "also effective"}]}, {"smiles": "CC(C)(C)[N+]([O-])=Cc1ccc(S(=O)(=O)[O-])cc1S(=O)(=O)[O-].[Na+].[Na+]", "note": "[NXY-059, disulfonyl PBN]", "values": [{"measurement": "neuroprotective efficacy", "setting": "acute ischemic stroke", "value": "effective in animal models, but not in humans"}]}, {"smiles": "CC1(C)CC(O)CC(C)(C)N1O", "note": "[TEMPOL-H, the hydroxylamine reduced form of the nitroxide 4-hydroxy-2,2,6,6-tetramethylpiperidin-1-yloxy]", "values": [{"measurement": "skin changes typical of menopause", "setting": "[1]; 10 mg TEMPOL plus 100 mg ascorbic acid orally 1-3 times a day", "value": "yet to develop the skin changes typical of menopause"}, {"measurement": "effect on perimenopausal symptoms", "setting": "[1]; [4]", "value": "disappearance of hot flashes, sweating, and discomfort"}, {"measurement": "time to first results of treatment", "setting": "[1]; [4]", "value": "1-2 weeks"}, {"measurement": "symptoms on cessation of treatment", "setting": "[1]; after long-term relief, treatment stopped", "value": "symptoms eventually reappear on cessation of treatment"}, {"measurement": "perimenopausal symptoms during earlier TEMPOL-H treatment for fibrocystic disease of breast", "setting": "[1]; same patient, menses stopped", "value": "had not presented with perimenopausal symptoms"}, {"measurement": "symptoms upon resumption of treatment", "setting": "[1]; treatment resumed after cessation", "value": "symptoms disappear"}, {"measurement": "efficacy in fibrocystic disease of breast", "setting": "[3]", "value": "effective"}]}]}
